Laboratory results published in publication PMC11064505, “A nanochitosan-D-galactose formulation increases the accumulation of primaquine in the liver” (Antimicrobial Agents and Chemotherapy, 2024).

Columns and labels:
in vivo = details: mouse
Protocol: All formulations were given by gavage with a final volume of 200 µL. At different intervals (0.5, 1, 2, 4, 8, and 24 hours), animals were subjected to anesthesia with a mixture of xylazine (10 mg/kg) and ketamine (100 mg/kg). Blood was collected by cardiac puncture, plasma was separated by centrifugation, RBCs were washed three times in saline, and plasma and RBC were stored at −20°C. After the animal was exsanguinated, the liver, lungs, and spleen were collected and frozen in liquid nitrogen until processed for primaquine quantification.
The extraction procedure was based on Carmo et al. ([22]) and Joshi and Devarajan ([23]). Briefly, 100 µL or 100 mg of the sample was transferred to a 1.5 mL microtube. Then, 100 µL of 2% acetic acid-acidified acetonitrile and 100 µL of ultrapure water were added. Next, the samples were homogenized for 1 minute using a vortex, and 50 µL of 12.5% zinc sulfate solution was added. The samples were homogenized again for 1 minute and left to stand for 20 minutes to ensure complete protein precipitation. After this period, the samples were centrifuged at 7,500 rpm for 15 minutes at room temperature. Finally, the supernatant was collected, and 20 µL was injected into the liquid chromatograph. This process was repeated to construct the eight-point calibration curves (0.39–50 µg/mL).
The primaquine concentrations in plasma, liver, lung, and spleen samples from mice treated with free primaquine were determined using high-performance liquid chromatography with a UV detector (HPLC-UV). Method validation followed orientations of the Guidance for Bioanalytical Method Validation from the Food and Drug Administration. The method was developed using a Waters liquid chromatography system with an Alliance e2695 Separation Module, quaternary pump, autosampler, degasser, column heater, and a dual channel UV–Vis detector (Milford, USA). The Empower 3 software was used for system control, peak integration, and data analysis. The separation was performed using an XBridge C18 reverse-phase column (150 × 4.6 mm, 5 µm) and an XBridge C18 reverse-phase pre-column (20 × 4.6 mm, 5 µm). For elution and identification of the primaquine, the mobile phase (MP) consisted of (A) potassium phosphate buffer (0.02 mol/L, pH = 3) and (Bi) acetonitrile. […] The flow rate of the MP was set at 1.0 mL/min, the column oven temperature was maintained at 35°C, and the UV detector was set at 266 nm. An injection volume of 20 µL was used, and the total run time was 13 minutes.
The physicochemical analyses of the nanoparticles were performed in triplicate and are expressed as the mean value ± SD. Statistical significance tests were applied through mixed-model analysis of variance, using Prism GraphPad Software. […] Non-compartmental pharmacokinetic analysis was conducted using PK Solutions 2.0 (Summit Research Services, Ashland, USA). The area under the concentration-time curve was calculated using the trapezoidal method (AUC0-t) from time zero to the last data point and extrapolated to infinity (AUC0-∞). The maximum plasma concentration (Cmax) and the time taken to reach Cmax (Tmax) were obtained from the experimental data. The elimination rate constant (K) was determined from the slope of the regression line, allowing the calculation of the elimination half-life (t1/2β) using the formula 0.693 /K ([24]). All data were presented as mean ± SD.

[1] = set-up: method as in PMID 16968913, PMID 30379233, PMID 35709685; details: human treatment, clinical dose; cited from earlier work
[2] = set-up: method as in PMID 16140485; details: 1 hour after intravenous administration in mice; cited from earlier work

- Tmax (in vivo; Swiss Webster, po, 10 mg/kg): 30 min
- liver/plasma ratio for the volume of distribution (in vivo; Swiss Webster, po, 10 mg/kg): 0.1
- primaquine concentrations in the liver, variation among animals (in vivo; Swiss Webster, po, 10 mg/kg, 30 minutes): 3.5-110 µg of drug per 100 mg of tissue
- Cmax (in vivo; Swiss Webster, po, 10 mg/kg, primaquine concentrations in plasma (Cmax), variation among animals): 400 to 2000 ng/mL
- Cmax of primaquine in the liver relative to the galactose-based nanoformulations (in vivo): about twice as much
SMILES: COc1cc(NC(C)CCCN)c2ncccc2c1 (stereo not shown) [Pq, primaquine diphosphate]
- Cmax in plasma [1]: around 0.1 µg/mL
- uptake of the drug (recovery) in the liver [2]: 20%
